Where “and” joins values, the source holds several entries; their conditions need not be identical. Equal entries are not always repeated. Where two headings read alike, the source gives them in different places.
Legend:
[1] = biological target: ClpP1P2 (Mycolicibacterium smegmatis, UniProt A0R197+A0R198); assay: ClpP1P2 inhibition whole-cell RFP-SsrA reporter assay; settings: 3 h incubation
[2] = system: M. smegmatis ΔprcAB; format: cell-based; settings: for M. smegmatis ΔprcAB MIC50: 24 h exposure, OD600, concentration inhibiting 50% of growth; for improvement of bacterial-growth inhibition compared to compound 1: M. smegmatis ΔprcAB
[3] = biological target: HepG2 proteasome (Homo sapiens, UniProt P20618+P28074); assay: Cell-based proteasome CT-like peptidase inhibition assay (Proteasome-Glo)
Method: A cell-based CT-like peptidase assay was performed using the Proteasome-Glo cell-based assay reagent (Promega) according to the manufacturer's guidelines. Briefly, HepG2 cells (10^4 cells/well) were treated with the compounds indicated in the figures for 2 h, followed by incubation with the luminescent substrate for 10 min. Luminescence was detected with a Tecan M200 Pro plate reader.

[4] = M. smegmatis ΔprcAB IC50 (μM) for ClpP1P2, whole-cell RFP-SsrA reporter
[5] = read-out: M. smegmatis ΔprcAB IC50 (μM) for ClpP1P2, whole-cell RFP-SsrA reporter
[6] = read-out: IC50 (μM) for HepG2 proteasome, HepG2 cells, 2 h treatment, chymotrypsin-like site

Sequence of ClpP1P2 (A0R198 4-203): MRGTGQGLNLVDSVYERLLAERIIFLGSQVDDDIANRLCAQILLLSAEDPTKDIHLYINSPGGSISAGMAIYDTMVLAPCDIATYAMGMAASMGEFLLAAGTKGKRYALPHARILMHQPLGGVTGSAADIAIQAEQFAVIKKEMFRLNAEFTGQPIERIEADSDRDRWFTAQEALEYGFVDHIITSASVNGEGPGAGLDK
Sequence of ClpP1P2 (A0R197 17-218): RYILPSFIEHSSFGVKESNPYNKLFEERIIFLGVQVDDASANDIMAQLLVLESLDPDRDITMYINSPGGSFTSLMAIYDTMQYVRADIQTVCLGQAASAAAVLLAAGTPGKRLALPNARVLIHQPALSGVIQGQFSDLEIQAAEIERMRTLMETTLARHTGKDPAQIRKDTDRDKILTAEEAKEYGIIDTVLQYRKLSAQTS

| Compound | IC50 [1, 4] | M. smegmatis ΔprcAB MIC50 [2] | IC50 [3] [µM] | IC50 [1, 5] [µM] | IC50 [3, 6] [µM] | improvement of bacterial-growth inhibition compared to compound 1 [2] [fold] |
| --- | --- | --- | --- | --- | --- | --- |
| CC(C)(C(=O)N[C@@H](Cc1ccccc1)C(=O)N[C@@H](CCC1CCCCC1)B(O)O)n1cccc1 [Compound 50, ((R)-3-cyclohexyl-1-((S)-2-(2-methyl-2-(1H-pyrrol-1-yl)propanamido)-3-phenylpropanamido)propyl)boronic acid] | 200 µM | 150 ± 0 µM | > 0.5 |  |  |  |
| ((R)-1-((S)-2-(indolizine-2-carboxamido)-3-phenylpropanamido)-3-methylbutyl)boronic acid [Compound 40] |  | 8.3 ± 4.5 µM |  | 9 ± 3 | 0.023 ± 0.008 |  |
| O=C(N[C@@H](Cc1ccccc1)C(=O)N[C@@H](CCc1ccccc1)B(O)O)c1ccc(C(F)(F)F)cc1 [Compound 52, ((R)-3-phenyl-1-((S)-3-phenyl-2-(4-(trifluoromethyl)benzamido)propanamido)propyl)boronic acid] | 12 µM | 11 ± 1 µM | 0.1 |  |  |  |
| CC(C)C[C@H](NC(=O)[C@H](Cc1ccccc1)NC(=O)c1ccccc1)B(O)O [Compound 35, ((R)-1-((S)-2-benzamido-3-phenylpropanamido)-3-methylbutyl)boronic acid] | 3.3 ± 0.5 µM | 3.5 ± 0.5 µM | 0.006 ± 0.001 |  |  |  |
| O=C(N[C@@H](Cc1ccccc1)C(=O)N[C@@H](CCc1ccccc1)B(O)O)c1ccccc1F [Compound 53, ((R)-1-((S)-2-(2-fluorobenzamido)-3-phenylpropanamido)-3-phenylpropyl)boronic acid] | 4.5 µM | 7 ± 3 µM | 0.2 |  |  |  |
| ((R)-1-((S)-2-(indolizine-3-carboxamido)-3-phenylpropanamido)-3-methylbutyl)boronic acid [Compound 41] |  | 15 ± 0 µM |  | 11.3 ± 0.9 | 0.006 ± 0.001 |  |
| CC(C)C[C@H](NC(=O)[C@H](Cc1ccccc1)NC(=O)c1cccnc1)B(O)O [Compound 36, ((R)-3-methyl-1-((S)-2-(nicotinamido)-3-phenylpropanamido)butyl)boronic acid] | 4 ± 1.4 µM | 6 ± 0 µM | 0.03 |  |  |  |
| O=C(N[C@@H](Cc1ccccc1)C(=O)N[C@@H](CCC1CCCCC1)B(O)O)c1ccccc1 [Compound 48, ((R)-1-((S)-2-benzamido-3-phenylpropanamido)-3-cyclohexylpropyl)boronic acid] | > 200 µM | >200 µM | > 0.5 |  |  |  |
| CC(C)C[C@H](NC(=O)CCc1ccccc1)B(O)O [Compound 25, (R)-(3-methyl-1-(3-phenylpropanamido)butyl)boronic acid] | > 200 µM | >200 µM | 0.25 |  |  |  |
| CC(C)C[C@H](NC(=O)[C@H](Cc1ccccc1)NC(=O)N1CCCCC1)B(O)O [Compound 45, ((R)-3-methyl-1-((S)-3-phenyl-2-(piperidine-1-carboxamido)propanamido)butyl)boronic acid] | 22.5 ± 2.5 µM | 19 ± 5.4 µM | 0.023 ± 0.008 |  |  |  |
| CC(C)C[C@H](NC(=O)[C@@H](N)Cc1ccccc1)B(O)O [Compound 26, ((R)-1-((S)-2-amino-3-phenylpropanamido)-3-methylbutyl)boronic acid] | > 200 µM | 100 ± 0 µM | 0.08 ± 0.01 |  |  |  |
| CC(C)C[C@H](NC(=O)[C@H](Cc1ccccc1)NC(=O)c1cc(-c2ccccc2)ncn1)B(O)O [Compound 39, ((R)-3-methyl-1-((S)-3-phenyl-2-(6-phenylpyrimidine-4-carboxamido)propanamido)butyl) boronic acid] | > 200 µM | >200 µM | 0.006 ± 0.001 |  |  |  |
| CC(C)C[C@H](NC(=O)[C@H](Cc1ccccc1)NC(=O)[C@H](Cc1ccccc1)NC(=O)c1cnccn1)B(O)O [Compound 44] | > 200 µM | 75 ± 0 µM | 0.006 ± 0.001 |  |  |  |
| CC(C)(C(=O)N[C@@H](Cc1ccccc1)C(=O)N[C@@H](CCc1ccccc1)B(O)O)n1cccc1 [Compound 54, ((R)-1-((S)-2-(2-methyl-2-(1H-pyrrol-1-yl)propanamido)-3-phenylpropanamido)-3-phenylpropyl)boronic acid] | 25 µM | 30 ± 0 µM | 0.5 |  |  |  |
| CC(=O)N[C@@H](Cc1ccccc1)C(=O)N[C@@H](Cc1ccccc1)B(O)O [Compound 46, ((R)-1-((S)-2-acetamido-3-phenylpropanamido)-2-phenylethyl)boronic acid] | 50 µM | 50 ± 0 µM | 0.218 ± 0.158 |  |  |  |
| CC(C)C[C@H](NC(=O)[C@H](Cc1ccccc1)NC(=O)c1ncc(-c2ccccc2)o1)B(O)O (mixture of isomers) [Compound 42, ((R)-3-methyl-1-((S)-3-phenyl-2-(5-phenyloxazole-2-carboxamido)propanamido)butyl)boronic acid] | 6.7 ± 4.1 µM | 8 ± 0 µM | 0.006 ± 0.001 |  |  |  |
| CC(C)C[C@H](NC(=O)[C@H](Cc1ccccc1)NC(=O)c1cccc2ncsc12)B(O)O [Compound 43] | 2.75 ± 1.25 µM | 3 ± 0 µM | 0.006 ± 0.001 |  |  | 2 |
| CC(=O)N[C@@H](Cc1ccccc1)C(=O)N[C@@H](CC(C)C)B(O)O [Compound 33, ((R)-1-((S)-2-acetamido-3-phenylpropanamido)-3-methylbutyl)boronic acid] | 42 µM and 41.7 µM | 50 ± 0 µM | 0.01 ± 0.005 |  |  |  |
| O=C(N[C@@H](Cc1ccccc1)C(=O)N[C@@H](CC1CCCCC1)B(O)O)c1cnccn1 (mixture of isomers) [Compound 29, ((R)-2-cyclohexyl-1-((S)-3-phenyl-2-(pyrazine-2-carboxamido)propanamido)ethyl)boronic acid] | 27 ± 16 µM | 22.5 ± 2.5 µM | 0.127 ± 0.002 |  |  |  |
| CC(C)C[C@H](NC(=O)[C@H](Cc1ccccc1)NC(=O)c1cnc(-c2ccccc2)nc1)B(O)O (mixture of isomers) [Compound 38, ((R)-3-methyl-1-((S)-3-phenyl-2-(2-phenylpyrimidine-5-carboxamido)propanamido)butyl)boronic acid] | 1.7 ± 1 µM | 2 ± 0 µM | 0.006 ± 0.001 |  |  |  |
| O=C(N[C@@H](Cc1ccccc1)C(=O)N[C@H](B(O)O)C1CCCCC1)c1cnccn1 [Compound 28, ((R)-cyclohexyl((S)-3-phenyl-2-(pyrazine-2-carboxamido)propanamido)methyl)boronic acid] | 33 ± 12 µM | 16 ± 4 µM | 0.155 ± 0.025 |  |  |  |
| CC(C)C[C@H](NC(=O)[C@H](Cc1ccccc1)NC(=O)Cc1ccccc1)B(O)O (mixture of isomers) [Compound 34, ((R)-3-methyl-1-((S)-3-phenyl-2-(2-phenylacetamido)propanamido)butyl)boronic acid] | 9 ± 3 µM | 12 ± 0 µM | 0.006 ± 0.001 |  |  |  |
| O=C(N[C@@H](Cc1ccccc1)C(=O)N[C@@H](CCC1CCCCC1)B(O)O)c1cccc2ncsc12 [Compound 47, ((R)-1-((S)-2-(benzo[d]thiazole-7-carboxamido)-3-phenylpropanamido)-3-cyclohexylpropyl)boronic acid] | > 200 µM | >200 µM | 0.288 ± 0.088 |  |  |  |
| CC(C)C[C@H](NC(=O)[C@H](C)NC(=O)c1cnccn1)B(O)O [Compound 56, ((R)-3-methyl-1-((S)-2-(pyrazine-2-carboxamido)propanamido)butyl)boronic acid] | 100 µM | 76.7 ± 20.5 µM | 0.225 ± 0.025 |  |  |  |
| CCCCC[C@H](NC(=O)[C@H](Cc1ccccc1)NC(=O)c1cnccn1)B(O)O [Compound 27, ((R)-1-((S)-3-phenyl-2-(pyrazine-2-carboxamido)propanamido)hexyl)boronic acid] | 4 µM | 3 ± 0 µM | 0.03 |  |  | 2 |
| CC(C)C[C@H](NC(=O)[C@H](Cc1ccccc1)NC(=O)c1ccccn1)B(O)O [Compound 37, ((R)-3-methyl-1-((S)-3-phenyl-2-(picolinamido)propanamido)butyl)boronic acid] | 17 ± 5.7 µM | 15 ± 0 µM | 0.006 ± 0.001 |  |  |  |
| O=C(N[C@@H](Cc1ccccc1)C(=O)N[C@@H](CCC1CCCCC1)B(O)O)c1ccccc1F [Compound 49, ((R)-3-cyclohexyl-1-((S)-2-(2-fluorobenzamido)-3-phenylpropanamido)propyl)boronic acid] | > 200 µM | >200 µM | 0.5 |  |  |  |
| O=C(N[C@@H](Cc1ccccc1)C(=O)N[C@@H](CCC1CCCCC1)B(O)O)c1cnccn1 [Compound 30, ((R)-3-cyclohexyl-1-((S)-3-phenyl-2-(pyrazine-2-carboxamido)propanamido)propyl)boronic acid] | 25 µM | 3.5 µM and 3.5 ± 0.5 µM | 0.5 ± 0.01 |  |  |  |
| O=C(N[C@@H](Cc1ccccc1)C(=O)N[C@@H](CCc1ccccc1)B(O)O)c1cnc(-c2ccccc2)nc1 [Compound 55, ((R)-3-phenyl-1-((S)-3-phenyl-2-(2-phenylpyrimidine-5-carboxamido)propanamido)propyl)boronic acid] | 6 µM | 5.5 ± 0.5 µM | 0.06 |  |  |  |
